The text below walks through data of publication PMC12041765, “The development of a high-throughput acoustic droplet ejection mass-spectrometry assay and a solid-supported membrane (SSM)-based electrophysiological assay to study the pharmacological inhibition of SLC1-A3, -A2 and -A1 in a drug discovery program” (Frontiers in Pharmacology, 2025).

SMILES strings stand for the structures. Where two headings read alike, the source gives them in different places.

Assay [1] concerns the target T1, SLC1A2 (EAAT2) (Homo sapiens, UniProt P43004).
T1 construct: host or cells: HEK293-JumpIn, doxycycline-induced
In words: SSM-based electrophysiology (SURFE2R 96 SE), EAAT2 membrane fragments. In kind it is biochemical. Particulars: glutamic acid up to 500 µM, membrane 4 µg/well, read-out: SURFE^2R Km.

In assay [2] the test system is EAAT2. More on the design: method as in Arriza et al. (1994). Particulars: radio-labeled uptake, COS7 cells, ref Arriza et al. (1994); cited from earlier work.
Assay [3] has as its system EAAT2. Set-up: method as in Arriza et al. (1994). The conditions noted are these: oocytes, Voltage-Clamp, ref Arriza et al. (1994); cited from earlier work.
The subject of assay [4] is EAAT2. Particulars: cited from earlier work.
The subject of assay [5] is EAAT3. The conditions noted are these: cited from earlier work.
Assay [6] has as its system EAAT1. The conditions noted are these: radio-labeled uptake, COS7 cells, ref Arriza et al. (1994); cited from earlier work.
The test system of assay [7] is EAAT3. Particulars: radio-labeled uptake, COS7 cells, ref Arriza et al. (1994); cited from earlier work.
The subject of assay [8] is EAAT1. The conditions noted are these: oocytes, Voltage-Clamp, ref Arriza et al. (1994); cited from earlier work.
The test system of assay [9] is EAAT3. The conditions noted are these: oocytes, Voltage-Clamp, ref Arriza et al. (1994); cited from earlier work.
In assay [10] the test system is EAAT1. Particulars: glutamic acid uptake assay, ref Vallejo-Illarramendi et al. (2005); cited from earlier work.
Assay [11] concerns EAAT1. Particulars: cited from earlier work.
[12] abbreviates: FLIPR membrane potential assay, ref Faure et al. (2006).
[13] abbreviates: similar methodologies (FLIPR), ref Alaux et al. (2005).

T1 sequence (P43004 whole entry): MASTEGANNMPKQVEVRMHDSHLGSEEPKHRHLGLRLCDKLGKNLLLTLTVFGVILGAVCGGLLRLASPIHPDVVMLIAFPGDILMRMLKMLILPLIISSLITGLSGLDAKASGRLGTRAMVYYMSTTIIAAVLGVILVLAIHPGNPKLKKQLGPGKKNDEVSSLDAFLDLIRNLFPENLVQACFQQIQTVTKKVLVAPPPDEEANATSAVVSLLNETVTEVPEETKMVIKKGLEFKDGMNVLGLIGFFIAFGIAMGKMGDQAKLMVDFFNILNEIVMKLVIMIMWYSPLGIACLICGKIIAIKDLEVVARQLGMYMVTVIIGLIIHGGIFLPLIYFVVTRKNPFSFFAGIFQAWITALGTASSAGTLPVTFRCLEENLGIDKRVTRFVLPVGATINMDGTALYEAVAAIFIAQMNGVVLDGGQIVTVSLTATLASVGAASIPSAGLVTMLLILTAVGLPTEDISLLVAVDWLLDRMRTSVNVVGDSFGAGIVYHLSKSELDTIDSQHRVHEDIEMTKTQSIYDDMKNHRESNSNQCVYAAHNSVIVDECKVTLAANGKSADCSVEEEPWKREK

A word on the Km: it is the concentration of substrate that gives half-maximal velocity. Take `N[C@@H](CCC(=O)O)C(=O)O` [glutamic acid, L-glutamic acid]: the Km is 9.5 µM in [1]; 97 ± 4 µM in assay [2]; 18 ± 3 µM in assay [3]; 21 µM in [4] (setting [12]); 21 µM in [4] (setting [13]); 9.9 µM in [5] (setting [12]). In addition, the Km in assay [5] (setting [13]) is 25 µM; in [6], 48 ± 10 µM; in [7], 62 ± 8 µM; in assay [8] it was 20 ± 3 µM; in assay [9] it was 28 ± 6 µM; in [10] it was 27.5 ± 2.3 µM. For the same compound, the figures for the Km in assay [11] (setting [12]) and in assay [11] (setting [13]) were 7.9 µM and 9.2 µM, respectively.
